Among the data in ChEMBL document CHEMBL5500344, “Design, synthesis and biological evaluation of matrine contains benzimidazole derivatives as dual TOPOI and PARP inhibitors for cancer therapy” (Eur J Med Chem, 2024) are IC50 and inhibition values, retold here.

Experiment [1] concerns L02. Kind of experiment: Antiproliferative activity against human L02 cells assessed as inhibition of cell growth incubated for 48 hrs by MTT assay. The following applies: L02, 48 h. It counts as functional, cell-based.
The test system of experiment [2] is HeLa. Kind of experiment: Antiproliferative activity against human HeLa cells assessed as inhibition of cell growth incubated for 48 hrs by MTT assay. The class given is functional, cell-based.
The test system of experiment [3] is A549. Put plainly: Antiproliferative activity against human A549 cells assessed as inhibition of cell growth incubated for 48 hrs by MTT assay. It counts as functional, cell-based. The note with it: A549, 48 h.
Experiment [4] relates to HepG2. Put plainly: Antiproliferative activity against human HepG2 cells assessed as inhibition of cell growth incubated for 48 hrs by MTT assay. It counts as functional, cell-based. The note with it: HepG2, 48 h.
Experiment [5] relates to HGC-27. Kind of experiment: Antiproliferative activity against human HGC-27 cells assessed as inhibition of cell growth incubated for 48 hrs by MTT assay. It counts as functional, cell-based. The following applies: HGC-27, 48 h, read-out: IC50.
The target of experiment [6] is Poly [ADP-ribose] polymerase 1 (Homo sapiens, UniProt P09874). Put plainly: Inhibition of PARP-1 (unknown origin) incubated for 70 mins by HT universal chemiluminescent assay.
The target in experiment [7] is T1, DNA topoisomerase 1 (Homo sapiens) (UniProt P11387).
T1 sequence (whole entry): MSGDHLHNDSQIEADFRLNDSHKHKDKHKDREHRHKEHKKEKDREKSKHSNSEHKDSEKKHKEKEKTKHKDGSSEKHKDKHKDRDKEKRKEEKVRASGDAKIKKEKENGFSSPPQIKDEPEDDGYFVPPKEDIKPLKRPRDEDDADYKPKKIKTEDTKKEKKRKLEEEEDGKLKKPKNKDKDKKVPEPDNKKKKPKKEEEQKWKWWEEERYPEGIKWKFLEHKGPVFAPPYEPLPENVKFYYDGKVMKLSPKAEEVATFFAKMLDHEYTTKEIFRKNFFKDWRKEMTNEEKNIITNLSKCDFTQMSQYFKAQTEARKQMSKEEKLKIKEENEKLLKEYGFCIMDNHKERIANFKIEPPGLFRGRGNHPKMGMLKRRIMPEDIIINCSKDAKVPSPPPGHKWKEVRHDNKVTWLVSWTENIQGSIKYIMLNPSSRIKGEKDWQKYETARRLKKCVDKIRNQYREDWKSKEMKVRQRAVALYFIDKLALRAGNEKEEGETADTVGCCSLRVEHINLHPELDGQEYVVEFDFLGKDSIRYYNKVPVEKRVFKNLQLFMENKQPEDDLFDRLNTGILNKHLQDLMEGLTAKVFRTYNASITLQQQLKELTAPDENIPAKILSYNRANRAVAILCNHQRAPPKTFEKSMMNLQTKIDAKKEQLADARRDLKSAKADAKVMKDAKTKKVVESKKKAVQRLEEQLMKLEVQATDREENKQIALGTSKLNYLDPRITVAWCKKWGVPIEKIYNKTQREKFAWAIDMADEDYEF
Put plainly: Inhibition of human topoisomerase 1 assessed as relaxation of supercoiled pBR322 plasmid DNA at 100 uM incubated for 10 to 15 mins by EtBr staining based agarose gel electrophoresis method. The note with it: time 10-15 min.

Structures are written as SMILES. pIC50: −log10 of the molar value. Calls of active or inactive are those of the source. The rule behind the calls is not given here.

Chain of Poly [ADP-ribose] polymerase 1 (P09874 whole entry): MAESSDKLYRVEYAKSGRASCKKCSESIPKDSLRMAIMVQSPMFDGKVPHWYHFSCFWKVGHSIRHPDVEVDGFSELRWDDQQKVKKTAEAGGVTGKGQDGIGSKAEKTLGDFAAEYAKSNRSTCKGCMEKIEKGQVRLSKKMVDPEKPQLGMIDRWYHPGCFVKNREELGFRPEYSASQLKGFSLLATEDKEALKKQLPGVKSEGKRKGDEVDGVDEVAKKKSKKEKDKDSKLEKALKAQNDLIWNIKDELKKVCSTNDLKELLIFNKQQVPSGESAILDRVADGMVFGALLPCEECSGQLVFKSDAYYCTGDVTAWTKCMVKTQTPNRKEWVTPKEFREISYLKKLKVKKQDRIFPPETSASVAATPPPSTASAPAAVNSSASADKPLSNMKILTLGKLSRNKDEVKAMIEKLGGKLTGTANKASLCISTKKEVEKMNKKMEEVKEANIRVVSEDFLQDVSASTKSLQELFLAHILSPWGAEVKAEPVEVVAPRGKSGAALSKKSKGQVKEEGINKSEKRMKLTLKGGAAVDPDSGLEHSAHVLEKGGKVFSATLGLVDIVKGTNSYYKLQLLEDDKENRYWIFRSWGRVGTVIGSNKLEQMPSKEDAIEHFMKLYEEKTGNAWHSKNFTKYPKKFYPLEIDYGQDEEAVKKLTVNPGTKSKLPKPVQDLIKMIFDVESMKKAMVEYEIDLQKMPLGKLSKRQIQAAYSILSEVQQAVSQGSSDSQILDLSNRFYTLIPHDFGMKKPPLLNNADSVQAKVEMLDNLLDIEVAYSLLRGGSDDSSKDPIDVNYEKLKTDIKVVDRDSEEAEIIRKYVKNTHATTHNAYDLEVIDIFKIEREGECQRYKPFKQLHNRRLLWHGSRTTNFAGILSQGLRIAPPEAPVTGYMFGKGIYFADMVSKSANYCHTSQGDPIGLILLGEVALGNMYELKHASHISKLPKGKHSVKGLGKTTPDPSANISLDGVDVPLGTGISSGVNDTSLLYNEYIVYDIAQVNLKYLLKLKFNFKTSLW

For `Cc1ccc(S(=O)(=O)N2C[C@@H]3CCCN4CCC[C@@H]([C@H]34)[C@H]2CCCc2nc3ccc(Br)cc3n2S(=O)(=O)c2ccc(C)cc2)cc1`, the pIC50 in experiment [1] was less than 4.19; in experiment [2] it was 5.07; in experiment [3] it was 4.91; in experiment [4], 5.23; in experiment [5], 5.03; in experiment [6], 5.38.

For `Cc1ccc(S(=O)(=O)N2C[C@@H]3CCCN4CCC[C@@H]([C@H]34)[C@H]2CCCc2nc3cc(Br)ccc3n2S(=O)(=O)c2ccc(C)cc2)cc1`, the pIC50 was less than 4.19 in experiment [1]; 5.13 in experiment [2]; 4.97 in experiment [3]; 5.31 in experiment [4]; 5.20 in experiment [5]; 5.85 in experiment [6]. Further, the inhibition result in experiment [7] was “Active”.

Take `O=C(CCC[C@@H]1[C@H]2CCCN3CCC[C@@H](CN1C(=O)OCC1c4ccccc4-c4ccccc41)[C@@H]23)Nc1nc2ccccc2[nH]1`: the pIC50 in experiment [1] was less than 4.19; in experiment [2] it was 4.79; in experiment [3], 4.91; in experiment [4], 5.19; in experiment [5], 5.13; in experiment [6], 5.59. In addition, the inhibition result in experiment [7] is “Active”.

Take `O=C(CCC[C@@H]1[C@H]2CCCN3CCC[C@@H](CN1C(=O)OCC1c4ccccc4-c4ccccc41)[C@@H]23)NCCCc1nc2ccc(F)cc2[nH]1`: the pIC50 in experiment [1] was less than 4.19; in experiment [2] it was 4.80; in experiment [3], 4.93; in experiment [4] it was 5.17; in experiment [5], 5.09; in experiment [6], less than 4.80. Moreover, the inhibition entry in experiment [7] was “Active”.

Take `O=S(=O)(c1cccc2ccccc12)N1C[C@@H]2CCCN3CCC[C@@H]([C@H]23)[C@H]1CCCc1nc2cc(F)ccc2n1S(=O)(=O)c1cccc2ccccc12`: the pIC50 in experiment [1] is less than 4.19; in experiment [2] it was 4.96; in experiment [3], 4.77; in experiment [4], 5.16; in experiment [5], 5.12; in experiment [6], 4.86.

As for `O=S(=O)(c1ccc(C(F)(F)F)cc1)N1C[C@@H]2CCCN3CCC[C@@H]([C@H]23)[C@H]1CCCc1nc2cc(Cl)ccc2n1S(=O)(=O)c1ccc(C(F)(F)F)cc1`, the pIC50 is less than 4.19 in experiment [1]; 4.20 in experiment [2]; 4.24 in experiment [3]; 5.04 in experiment [4]; 5.06 in experiment [5]; 4.84 in experiment [6].

Turning to `O=C(OCC1c2ccccc2-c2ccccc21)N1C[C@@H]2CCCN3CCC[C@@H]([C@H]23)[C@H]1CCCc1nc2cc(Cl)c(Cl)cc2[nH]1`, the pIC50 in experiment [1] was less than 4.19; in experiment [2] it was 5.07; in experiment [3] it was 4.88; in experiment [4], 4.96; in experiment [5] it was 5.01; in experiment [6], 6.55. Moreover, in experiment [7], the inhibition result was “Active”.

Turning to `O=S(=O)(c1ccc(C(F)(F)F)cc1)N1C[C@@H]2CCCN3CCC[C@@H]([C@H]23)[C@H]1CCCc1nc2ccc(Cl)cc2n1S(=O)(=O)c1ccc(C(F)(F)F)cc1`, the pIC50 in experiment [2] is less than 4.10; in experiment [3], less than 4.10; in experiment [4] it was less than 4.10; in experiment [5], 4.15.
